Experimental data published in patent publication US9078440B2, “6-(2-aminophenyl)picolinates and their use as herbicides” (BAYER INTELLECTUAL PROPERTY GMBH, priority 2010, dated 2015).

Tests used:
Assay type in all cases: in vivo
[1] = test system: Pharbitis (Ipomoea) purpurea; experiment: Post-emergence herbicidal effect, greenhouse pot test; settings: 1.28 kg or less active substance per hectare, scored visually after about 3 weeks
Protocol: (§1) Post-emergence herbicidal effect and crop plant compatibility
(§2) Seeds of monocotyledonous and dicotyledonous weed and crop plants are placed in sandy loam in wood-fibre pots, covered with soil and cultivated in a greenhouse under good growth conditions. 2 to 3 weeks after sowing, the test plants are treated at the one-leaf stage. The inventive compounds, formulated in the form of wettable powders (WP) or as emulsion concentrates (EC), are then sprayed onto the green parts of the plants as an aqueous suspension or emulsion at a water application rate of 600 to 800 I/ha (converted) with addition of 0.2% by weight of wetting agent. After the test plants have been left to stand in the greenhouse under optimal growth conditions for about 3 weeks, the action of the formulations is scored visually in comparison to untreated controls (herbicidal action in percent (%): 100% action=the plants have died, 0% action=like control plants).

Matricaria inodora = experiment: as above; settings: 1.28 kg or less active substance per hectare, scored visually after about 3 weeks
Protocol: as §1, §2

[2] = test system: Polygonum (Fallopia) convolvulus; experiment: as above; settings: 1.28 kg or less active substance per hectare, scored visually after about 3 weeks
Protocol: as §1, §2

Veronica persica = experiment: as above; settings: 1.28 kg or less active substance per hectare, scored visually after about 3 weeks
Protocol: as §1, §2

Viola tricolor [3] = experiment: as above; settings: 1.28 kg or less active substance per hectare, scored visually after about 3 weeks
Protocol: as §1, §2

Stellaria media = experiment: as above; settings: 1.28 kg or less active substance per hectare, scored visually after about 3 weeks
Protocol: as §1, §2

Amaranthus retroflexus [4] = experiment: as above; settings: 1.28 kg or less active substance per hectare, scored visually after about 3 weeks
Protocol: as §1, §2

[5] = test system: Polygonum (Fallopia) convolvulus; experiment: Pre-emergence herbicidal effect, greenhouse pot test; settings: 1.28 kg of active substance per hectare, assessed visually after 3 weeks
Excerpt: (§3) Pre-emergence Herbicidal Effect and Crop Plant Compatibility
(§4) Seeds of monocotyledonous and dicotyledonous weed plants and crop plants are placed in wood-fibre pots in sandy loam and covered with soil. The inventive compounds, formulated in the form of wettable powders (WP) or as emulsion concentrates (EC), are then applied to the surface of the covering soil as an aqueous suspension or emulsion at a water application rate of 600 to 800 I/ha (converted) with addition of 0.2% wetting agent. After the treatment, the pots are placed in a greenhouse and kept under good growth conditions for the test plants. The damage to the test plants is assessed visually after a test period of 3 weeks by comparison with untreated controls (herbicidal activity in percent (%): 100% action=the plants have died, 0% action=like control plants).

Viola tricolor [6] = experiment: as above; settings: 1.28 kg of active substance per hectare, assessed visually after 3 weeks
Excerpt: as §3, §4

Amaranthus retroflexus [7] = experiment: as above; settings: 1.28 kg of active substance per hectare, assessed visually after 3 weeks
Excerpt: as §3, §4

Measured: herbicidal action

COC(=O)c1nc(-c2ccc(Cl)cc2N)cc(N)c1Cl [compound 58, methyl 4-amino-6-(2-amino-4-chlorophenyl)-3-chloropyridine-2-carboxylate]
at least 90%: all assays above
